For this test, the target named is human PAD4 (Homo sapiens (Human), UniProt Q9UM07). Kind of test: In Vitro PAD4 BAEE Biochemical Assay. The conditions noted are these: geometric mean of multiple experiments. The method in brief: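 Recombinant human PAD4 (His-SUMO tag removed, E. coli-expressed), 5 nM, preincubated with compound and 2 mM CaCl2 30 min at 25 °C in MOPS pH 7.6 with DTT; 3 mM BAEE added for 2 h at 25 °C, EDTA stop. Released ammonia detected by o-phthalaldehyde/DTT fluorescence (ex 405, em 535 nm).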
human PAD4, sequence (Q9UM07 2-663): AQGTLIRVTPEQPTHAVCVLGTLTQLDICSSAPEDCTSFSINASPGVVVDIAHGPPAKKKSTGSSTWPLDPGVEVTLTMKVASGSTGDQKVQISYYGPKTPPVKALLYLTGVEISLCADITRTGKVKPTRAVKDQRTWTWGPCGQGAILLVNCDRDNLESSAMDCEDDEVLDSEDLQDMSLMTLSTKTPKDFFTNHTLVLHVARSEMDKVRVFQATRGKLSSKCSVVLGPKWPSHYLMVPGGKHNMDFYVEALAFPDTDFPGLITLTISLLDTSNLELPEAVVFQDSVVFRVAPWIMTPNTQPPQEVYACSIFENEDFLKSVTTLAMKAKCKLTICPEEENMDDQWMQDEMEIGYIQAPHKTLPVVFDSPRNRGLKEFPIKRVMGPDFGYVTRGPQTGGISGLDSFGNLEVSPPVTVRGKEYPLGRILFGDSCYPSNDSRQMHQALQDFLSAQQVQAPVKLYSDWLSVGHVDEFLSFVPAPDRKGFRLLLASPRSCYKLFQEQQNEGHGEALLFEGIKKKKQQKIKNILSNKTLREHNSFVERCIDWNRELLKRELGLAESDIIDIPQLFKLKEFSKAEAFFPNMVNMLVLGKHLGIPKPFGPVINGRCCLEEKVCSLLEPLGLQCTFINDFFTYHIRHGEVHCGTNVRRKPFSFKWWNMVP

Where [1] appears, read: human PAD4, BAEE substrate, 5 nM PAD4, 2 mM calcium chloride, 3 mM BAEE.
Setting [2] is: recombinant PAD4 5 nM, 2 mM calcium chloride, 3 mM BAEE substrate.

As a reminder, the IC50 is the concentration that inhibits the measured activity by half.

On to `COc1cc(C(=O)N2[C@H]3CC[C@@H]2[C@H](N)C3)cc2nc(-c3cc4ccc([C@@H](C)NC(=O)C(C)n5cccn5)nc4n3CC3CC3)n(C)c12` (stereo partly drawn) [Example 211, N-((R)-1-(2-(5-((1R,2R,4S)-2-amino-7-azabicyclo[2.2.1]heptane-7-carbonyl)-7-methoxy-1-methyl-1H-benzo[d]imidazol-2-yl)-1-(cyclopropylmethyl)-1H-pyrrolo[2,3-b]pyridin-6-yl)ethyl)-2-(1H-pyrazol-1-yl)propanamide], for which the IC50 under setting [1] was determined as 92 nM.
Consider `COc1cc(C(=O)N2C[C@H](N)[C@@H]3CC[C@H]2C3)cc2nc(-c3cc4ccc([C@@H](C)NC(=O)C56C7C8C9C7C5C9C86)nc4n3CC3CC3)n(C)c12` (stereo partly drawn) [Example 299, N-((R)-1-(2-(5-((1S,4R,5R)-4-amino-2-azabicyclo[3.2.1]octane-2-carbonyl)-7-methoxy-1-methyl-1H-benzo[d]imidazol-2-yl)-1-(cyclopropylmethyl)-1H-pyrrolo[2,3-b]pyridin-6-yl)ethyl)cubane-1-carboxamide], for which the IC50 under setting [2] was determined as 74.3 nM.
Same read-out and setting: to `COC(=O)N(C)c1ccc2cc(-c3nc4cc(C(=O)N5C[C@H](N)[C@@H]6CC[C@H]5C6)cc(OC)c4n3C)n(CC3CC3)c2n1` [Example 287, methyl (2-(5-((1S,4R,5R)-4-amino-2-azabicyclo[3.2.1]octane-2-carbonyl)-7-methoxy-1-methyl-1H-benzo[d]imidazol-2-yl)-1-(cyclopropylmethyl)-1H-pyrrolo[2,3-b]pyridin-6-yl)(methyl)carbamate] belongs 106 nM.
Take `COc1cc(C(=O)N2[C@H]3CC[C@@H]2[C@H](N)C3)cc2nc(-c3cc4ccc([C@@H](C)NC(=O)C5CC5(F)F)cc4n3CC3CC3)n(C3CC3)c12` (stereo partly drawn) [Example 152, N-((R)-1-(2-(5-((1R,2R,4S)-2-amino-7-azabicyclo[2.2.1]heptane-7-carbonyl)-1-cyclopropyl-7-methoxy-1H-benzo[d]imidazol-2-yl)-1-(cyclopropylmethyl)-1H-indol-6-yl)ethyl)-2,2-difluorocyclopropane-1-carboxamide]: under setting [1], the IC50 turned out to be 63 nM.
For `COc1cc(C(=O)N2CCC[C@@H](N)C2)cc2nc(-c3cc4ccc(S(C)(=O)=O)nc4n3CC3CC3)n(C)c12` [Example 253, (R)-(3-aminopiperidin-1-yl)(2-(1-(cyclopropylmethyl)-6-(methylsulfonyl)-1H-pyrrolo[2,3-b]pyridin-2-yl)-7-methoxy-1-methyl-1H-benzo[d]imidazol-5-yl)methanone], the IC50 under setting [1] was 797 nM.
Same read-out and setting: to `C[C@H]1CCCS(=O)(=O)N1c1ccc2cc(-c3nc4cc(C(=O)N5C[C@H]6CC[C@@H]5[C@@H]6N)ccc4n3C3CC3)n(CC3CC3)c2n1` [Example 100, ((1R,4R,7R)-7-amino-2-azabicyclo[2.2.1]heptan-2-yl) (1-cyclopropyl-2-(1-(cyclopropylmethyl)-6-((S)-3-methyl-1,1-dioxido-1,2-thiazinan-2-yl)-1H-pyrrolo[2,3-b]pyridin-2-yl)-1H-benzo[d]imidazol-5-yl)methanone] belongs 55.5 nM; to `COc1cc(C(=O)N2C[C@H](N)CCN2C)cc2nc(-c3cc4ccc([C@@H](C)NC(=O)C5(C(F)(F)F)CC5)nc4n3CC3CC3)n(C)c12` [Example 192, N-((R)-1-(2-(5-((R)-5-amino-2-methylhexahydropyridazine-1-carbonyl)-7-methoxy-1-methyl-1H-benzo[d]imidazol-2-yl)-1-(cyclopropylmethyl)-1H-pyrrolo[2,3-b]pyridin-6-yl)ethyl)-1-(trifluoromethyl)cyclopropane-1-carboxamide], 174 nM.
Same read-out and setting: then `COc1cc(C(=O)N2C[C@H](N)CCN2C)cc2nc(-c3cc4ccc([C@@H](C)NC(=O)c5nc(C)cc(C(F)(F)F)n5)nc4n3CC3CC3)n(C)c12` [Example 183, N-((R)-1-(2-(5-((R)-5-amino-2-methylhexahydropyridazine-1-carbonyl)-7-methoxy-1-methyl-1H-benzo[d]imidazol-2-yl)-1-(cyclopropylmethyl)-1H-pyrrolo[2,3-b]pyridin-6-yl)ethyl)-4-methyl-6-(trifluoromethyl)pyrimidine-2-carboxamide], with 198 nM; and `COc1cc(C(=O)N2C[C@H](N)CC[C@@H]2C)cc2nc(-c3cc4ccc(-c5sc(C(C)C)nc5C)nc4n3CC3CC3)n(C)c12` [Example 274, ((2S,5R)-5-amino-2-methylpiperidin-1-yl)(2-(1-(cyclopropylmethyl)-6-(2-isopropyl-4-methylthiazol-5-yl)-1H-pyrrolo[2,3-b]pyridin-2-yl)-7-methoxy-1-methyl-1H-benzo[d]imidazol-5-yl)methanone], with 4910 nM; and `COc1cccc(F)c1C(=O)N[C@H](C)c1ccc2cc(-c3nc4cc(C(=O)N5[C@H]6CC[C@@H]5[C@H](N)C6)cc(OC)c4n3C3CC3)n(CC3CC3)c2c1` [Example 149, N-((R)-1-(2-(5-((1R,2R,4S)-2-amino-7-azabicyclo[2.2.1]heptane-7-carbonyl)-1-cyclopropyl-7-methoxy-1H-benzo[d]imidazol-2-yl)-1-(cyclopropylmethyl)-1H-indol-6-yl)ethyl)-2-fluoro-6-methoxybenzamide], with 95.4 nM.
For the compound `COc1cc(C(=O)N2C[C@H](N)[C@@H]3CC[C@H]2C3)cc2nc(-c3cc4ccc([C@@H](C)NC(=O)[C@]5(C)CC5(F)F)nc4n3CC3CC3)n(C)c12` [Example 331, (S)-N-((R)-1-(2-(5-((1S,4R,5R)-4-amino-2-azabicyclo[3.2.1]octane-2-carbonyl)-7-methoxy-1-methyl-1H-benzo[d]imidazol-2-yl)-1-(cyclopropylmethyl)-1H-pyrrolo[2,3-b]pyridin-6-yl)ethyl)-2,2-difluoro-1-methylcyclopropane-1-carboxamide], under setting [2], the concentration for half-maximal inhibition (IC50) was found to be 71 nM.
As to `COc1cc(C(=O)N[C@@H]2CNC[C@H]2NC(=O)CCCN(C)C)cc2nc(-c3cc4ccc(N(C(F)F)S(C)(=O)=O)nc4n3CC3CC3)n(C)c12` [Example 83, 2-(1-(cyclopropylmethyl)-6-((N-(difluoromethyl)methyl)sulfonamido)-1H-pyrrolo[2,3-b]pyridin-2-yl)-N-((3R,4R)-4-(4-(dimethylamino)butanamido)pyrrolidin-3-yl)-7-methoxy-1-methyl-1H-benzo[d]imidazole-5-carboxamide], the IC50 under setting [1] is 50000 nM.
For the compound `C[C@@H](NC(=O)C12CC(F)(C1)C2)c1ccc2cc(-c3nc4cc(C(=O)N5C[C@H](N)[C@@H]6CC[C@H]5C6)cc(F)c4n3C3CC3)n(CC3CC3)c2n1` [Example 219, N-((R)-1-(2-(5-((1S,4R,5R)-4-amino-2-azabicyclo[3.2.1]octane-2-carbonyl)-1-cyclopropyl-7-fluoro-1H-benzo[d]imidazol-2-yl)-1-(cyclopropylmethyl)-1H-pyrrolo[2,3-b]pyridin-6-yl)ethyl)-3-fluorobicyclo[1.1.1]pentane-1-carboxamide], the IC50 under setting [2] is 78.6 nM.
In the case of `COc1cc(C(=O)N2C[C@H](N)CCN2C)cc2nc(-c3cc4ccc([C@@H](C)NC(=O)C56CC(F)(C5)C6)nc4n3CC3CC3)n(C)c12` [Example 171, N-((R)-1-(2-(5-((R)-5-amino-2-methylhexahydropyridazine-1-carbonyl)-7-methoxy-1-methyl-1H-benzo[d]imidazol-2-yl)-1-(cyclopropylmethyl)-1H-pyrrolo[2,3-b]pyridin-6-yl)ethyl)-3-fluorobicyclo[1.1.1]pentane-1-carboxamide], the IC50 under setting [1] was 90.2 nM.
For `COc1cc(C(=O)N2C[C@H](N)[C@@H]3CC[C@H]2C3)cc2nc(-c3cc4ccc([C@@H](C)NC(=O)C56CC(C5)C6)nc4n3CC3CC3)n(C)c12` [Example 290, N-((R)-1-(2-(5-((1S,4R,5R)-4-amino-2-azabicyclo[3.2.1]octane-2-carbonyl)-7-methoxy-1-methyl-1H-benzo[d]imidazol-2-yl)-1-(cyclopropylmethyl)-1H-pyrrolo[2,3-b]pyridin-6-yl)ethyl)bicyclo[1.1.1] pentane-1-carboxamide], the half-inhibitory concentration (IC50) under setting [2] came out at 79.2 nM.
On to `COc1cc(C(=O)N2C[C@H](N)CC[C@@H]2C)cc2nc(-c3cc4ccc(-c5cccnc5S(C)(=O)=O)nc4n3CC3CC3)n(C)c12` [Example 265, ((2S,5R)-5-amino-2-methylpiperidin-1-yl)(2-(1-(cyclopropylmethyl)-6-(2-(methylsulfonyl)pyridin-3-yl)-1H-pyrrolo[2,3-b]pyridin-2-yl)-7-methoxy-1-methyl-1H-benzo[d]imidazol-5-yl)methanone], for which the IC50 under setting [1] was 269 nM.
Still for that read-out and setting: to `COc1cc(C(=O)N2CCC[C@@H](N)C2)cc2nc(-c3cc4ccc(N(Cc5ccccc5)S(C)(=O)=O)nc4n3CC3CC3)n(C)c12` [Example 11, (R)-N-(2-(5-(3-aminopiperidine-1-carbonyl)-7-methoxy-1-methyl-1H-benzo[d]imidazol-2-yl)-1-(cyclopropylmethyl)-1H-pyrrolo [2,3-b]pyridin-6-yl)-N-benzylmethanesulfonamide] belongs 192 nM; to `COc1cc(C(=O)N2C[C@H](N)CCN2C)cc2nc(-c3cc4ccc([C@@H](C)NC(=O)c5ccc(F)cc5)nc4n3CC3CC3)n(C)c12` [Example 155, N-((R)-1-(2-(5-((R)-5-amino-2-methylhexahydropyridazine-1-carbonyl)-7-methoxy-1-methyl-1H-benzo[d]imidazol-2-yl)-1-(cyclopropylmethyl)-1H-pyrrolo[2,3-b]pyridin-6-yl)ethyl)-4-fluorobenzamide], 165 nM.
On the same count and under the same terms, then `COc1cc(C(=O)N2C[C@H](N)CC[C@@H]2C)cc2nc(-c3cc4ccc(N5C(=O)CCCC5C)nc4n3CC3CC3)n(C)c12` (stereo partly drawn) [Example 281, 1-(2-(5-((2S,5R)-5-amino-2-methylpiperidine-1-carbonyl)-7-methoxy-1-methyl-1H-benzo[d]imidazol-2-yl)-1-(cyclopropylmethyl)-1H-pyrrolo[2,3-b]pyridin-6-yl)-6-methylpiperidin-2-one], with 643 nM.

The values above are taken from patent US11878965B2, “Inhibitors of peptidylarginine deiminases” (Gilead Sciences, Inc., priority 2020, dated 2024).
